Calls of active or inactive are those of the source.
Columns and labels:
[1] = target: T1, Voltage-gated N-type calcium channel alpha-1B subunit/Amyloid beta A4 precursor protein-binding family A member 1 (Homo sapiens, UniProt Q00975+Q02410); type: protein assay
[2] = target: T1, Voltage-gated N-type calcium channel alpha-1B subunit/Amyloid beta A4 precursor protein-binding family A member 1; type: protein assay; remark: listed apart in the source
[3] = target: DNA (cytosine-5)-methyltransferase 1 (Homo sapiens, UniProt P26358); test: DNMT1 methyltransferase inhibitors, confirmation, biochemical, fluorescent molecular beacon (AID 602386); type: functional
[4] = target: Eukaryotic translation initiation factor 4H (Homo sapiens, UniProt Q15056); test: human eIF4H binding inhibitors, primary screen, translation initiation inhibitor project, biochemical, uHTS, fluorescence polarization (AID 2012)
[5] = target: Polyadenylate-binding protein 1 (Homo sapiens, UniProt P11940); test: PABP poly(A) RNA binding inhibitors, primary screen, biochemical, fluorescence polarization, uHTS (AID 2014)
Chain of Polyadenylate-binding protein 1 (P11940 whole entry): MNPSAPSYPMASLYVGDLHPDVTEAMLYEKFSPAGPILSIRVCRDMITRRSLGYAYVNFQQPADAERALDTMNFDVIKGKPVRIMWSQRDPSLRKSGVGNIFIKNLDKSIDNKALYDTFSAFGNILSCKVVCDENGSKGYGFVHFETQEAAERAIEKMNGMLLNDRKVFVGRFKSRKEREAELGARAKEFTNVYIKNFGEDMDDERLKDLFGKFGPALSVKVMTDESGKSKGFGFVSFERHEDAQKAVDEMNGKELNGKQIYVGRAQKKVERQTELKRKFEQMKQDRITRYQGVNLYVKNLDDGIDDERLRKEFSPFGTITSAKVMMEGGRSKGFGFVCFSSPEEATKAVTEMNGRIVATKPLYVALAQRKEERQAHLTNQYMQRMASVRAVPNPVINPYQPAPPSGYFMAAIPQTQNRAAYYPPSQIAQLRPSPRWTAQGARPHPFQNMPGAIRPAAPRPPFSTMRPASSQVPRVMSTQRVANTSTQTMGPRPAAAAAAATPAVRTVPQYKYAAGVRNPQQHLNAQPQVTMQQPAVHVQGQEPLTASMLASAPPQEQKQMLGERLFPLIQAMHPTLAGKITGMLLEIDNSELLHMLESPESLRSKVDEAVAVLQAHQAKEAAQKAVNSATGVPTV

[6] = A cytotoxicity screen of small molecule inhibitors of the PhoP region in Salmonella typhi identified in the primary screen. [Related pubchem assays: 1850, 1864, 1985 ]; type: functional
[7] = target: T2, Orexin/Hypocretin receptor type 1 (Homo sapiens, UniProt O43613); test: Homogeneous Time Resolved Fluorescence (HTRF)-based cell-based high throughput dose response assay for antagonists of the orexin 1 receptor (OX1R; HCRTR1). [Related pubchem assays (depositor defined):AID434989, AID435008, AID463079, AID485270, AID492963, AID492964, AID492965, AID493232, AID504717, AID504718]; type: functional
T2 sequence (O43613 whole entry): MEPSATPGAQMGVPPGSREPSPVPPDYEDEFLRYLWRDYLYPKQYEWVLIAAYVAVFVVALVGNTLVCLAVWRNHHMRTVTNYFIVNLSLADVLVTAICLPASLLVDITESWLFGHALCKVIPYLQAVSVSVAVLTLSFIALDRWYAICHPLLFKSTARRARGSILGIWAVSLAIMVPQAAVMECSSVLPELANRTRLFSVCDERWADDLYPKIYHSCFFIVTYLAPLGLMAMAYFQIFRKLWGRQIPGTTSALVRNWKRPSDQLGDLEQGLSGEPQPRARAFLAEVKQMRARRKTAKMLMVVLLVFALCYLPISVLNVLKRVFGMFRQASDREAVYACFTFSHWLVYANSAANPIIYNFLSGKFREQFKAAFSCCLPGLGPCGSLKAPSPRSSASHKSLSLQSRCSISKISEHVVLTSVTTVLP

CHO-K1 = test: (§1) Counterscreen for antagonists of the orexin 1 receptor (OX1R; HCRTR1): Homogeneous time resolved fluorescence (HTRF)-based cell-based dose response assay to identify antagonists of the parental CHO-K1 cell line. [Related pubchem assays (depositor defined):AID434989, AID435008, AID463079, AID485270, AID492963, AID492964, AID492965, AID493232, AID504699, AID504701]; type: functional; conditions: Cricetulus griseus
[8] = as §1, with “Fluorescence-based” for “Homogeneous time resolved fluorescence (HTRF)-based”, “cell-based high throughput” for “cell-based”, “CHO” for “CHO-K1”; type: functional
[9] = target: T2, Orexin/Hypocretin receptor type 1; test: Fluorescence-based cell-based high throughput dose response assay for antagonists of the orexin 1 receptor (OX1R; HCRTR1). [Related pubchem assays (depositor defined):AID434989, AID435008, AID463079, AID485270, AID492963, AID492964, AID492965, AID493232, AID504717, AID504718]; type: functional
[10] = A Cell Based Secondary Assay To Explore Cytotoxicity of Compounds that Sensitize Mycobacterium Tuberculosis to Beta-Lactam Antibiotics.; type: functional
[11] = target: T3, Short transient receptor potential channel 4 (Mus musculus, UniProt Q9QUQ5); test: mouse TRPC4 channel inhibitors, dose response, cell-based, HEK293 TRPC4/mu-opioid, Fluo-4 calcium (AID 434942); type: functional;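 further: potency of inhibitors blocking the TRPC4 calcium response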
T3 sequence (Q9QUQ5 whole entry): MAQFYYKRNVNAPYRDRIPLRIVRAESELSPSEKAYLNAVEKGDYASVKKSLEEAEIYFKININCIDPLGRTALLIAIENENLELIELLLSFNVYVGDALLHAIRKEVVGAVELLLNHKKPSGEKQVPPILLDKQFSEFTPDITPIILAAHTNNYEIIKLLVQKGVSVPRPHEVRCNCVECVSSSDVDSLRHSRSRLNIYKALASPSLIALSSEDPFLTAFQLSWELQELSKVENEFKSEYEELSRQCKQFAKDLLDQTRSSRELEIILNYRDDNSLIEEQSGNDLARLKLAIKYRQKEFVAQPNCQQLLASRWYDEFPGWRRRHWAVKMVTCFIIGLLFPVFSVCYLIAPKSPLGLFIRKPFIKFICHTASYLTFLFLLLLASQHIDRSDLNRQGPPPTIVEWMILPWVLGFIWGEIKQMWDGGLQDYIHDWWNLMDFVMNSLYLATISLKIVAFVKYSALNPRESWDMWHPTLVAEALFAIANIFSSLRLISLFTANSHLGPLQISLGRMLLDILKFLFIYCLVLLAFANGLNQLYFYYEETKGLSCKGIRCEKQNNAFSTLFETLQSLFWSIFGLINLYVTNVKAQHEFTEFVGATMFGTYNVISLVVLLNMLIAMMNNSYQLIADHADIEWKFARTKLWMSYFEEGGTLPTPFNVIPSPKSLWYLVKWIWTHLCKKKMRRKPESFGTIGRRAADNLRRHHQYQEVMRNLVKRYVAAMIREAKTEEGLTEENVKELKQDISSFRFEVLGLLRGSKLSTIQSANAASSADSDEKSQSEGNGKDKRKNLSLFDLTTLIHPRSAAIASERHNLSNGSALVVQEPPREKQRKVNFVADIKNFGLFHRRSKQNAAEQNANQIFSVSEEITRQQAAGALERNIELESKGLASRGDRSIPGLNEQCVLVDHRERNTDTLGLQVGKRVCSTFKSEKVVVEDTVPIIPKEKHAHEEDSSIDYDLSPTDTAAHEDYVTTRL

[12] = target: DNA damage-inducible transcript 3 protein (Mus musculus, UniProt P35639); type: functional, Cricetulus griseus
Chain of DNA damage-inducible transcript 3 protein (P35639 whole entry): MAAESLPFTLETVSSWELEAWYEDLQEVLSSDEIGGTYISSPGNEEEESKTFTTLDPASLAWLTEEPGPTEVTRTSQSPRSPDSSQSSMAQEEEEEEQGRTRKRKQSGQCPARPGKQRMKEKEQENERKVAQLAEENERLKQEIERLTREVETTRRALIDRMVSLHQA

T1 sequence (Q00975 whole entry): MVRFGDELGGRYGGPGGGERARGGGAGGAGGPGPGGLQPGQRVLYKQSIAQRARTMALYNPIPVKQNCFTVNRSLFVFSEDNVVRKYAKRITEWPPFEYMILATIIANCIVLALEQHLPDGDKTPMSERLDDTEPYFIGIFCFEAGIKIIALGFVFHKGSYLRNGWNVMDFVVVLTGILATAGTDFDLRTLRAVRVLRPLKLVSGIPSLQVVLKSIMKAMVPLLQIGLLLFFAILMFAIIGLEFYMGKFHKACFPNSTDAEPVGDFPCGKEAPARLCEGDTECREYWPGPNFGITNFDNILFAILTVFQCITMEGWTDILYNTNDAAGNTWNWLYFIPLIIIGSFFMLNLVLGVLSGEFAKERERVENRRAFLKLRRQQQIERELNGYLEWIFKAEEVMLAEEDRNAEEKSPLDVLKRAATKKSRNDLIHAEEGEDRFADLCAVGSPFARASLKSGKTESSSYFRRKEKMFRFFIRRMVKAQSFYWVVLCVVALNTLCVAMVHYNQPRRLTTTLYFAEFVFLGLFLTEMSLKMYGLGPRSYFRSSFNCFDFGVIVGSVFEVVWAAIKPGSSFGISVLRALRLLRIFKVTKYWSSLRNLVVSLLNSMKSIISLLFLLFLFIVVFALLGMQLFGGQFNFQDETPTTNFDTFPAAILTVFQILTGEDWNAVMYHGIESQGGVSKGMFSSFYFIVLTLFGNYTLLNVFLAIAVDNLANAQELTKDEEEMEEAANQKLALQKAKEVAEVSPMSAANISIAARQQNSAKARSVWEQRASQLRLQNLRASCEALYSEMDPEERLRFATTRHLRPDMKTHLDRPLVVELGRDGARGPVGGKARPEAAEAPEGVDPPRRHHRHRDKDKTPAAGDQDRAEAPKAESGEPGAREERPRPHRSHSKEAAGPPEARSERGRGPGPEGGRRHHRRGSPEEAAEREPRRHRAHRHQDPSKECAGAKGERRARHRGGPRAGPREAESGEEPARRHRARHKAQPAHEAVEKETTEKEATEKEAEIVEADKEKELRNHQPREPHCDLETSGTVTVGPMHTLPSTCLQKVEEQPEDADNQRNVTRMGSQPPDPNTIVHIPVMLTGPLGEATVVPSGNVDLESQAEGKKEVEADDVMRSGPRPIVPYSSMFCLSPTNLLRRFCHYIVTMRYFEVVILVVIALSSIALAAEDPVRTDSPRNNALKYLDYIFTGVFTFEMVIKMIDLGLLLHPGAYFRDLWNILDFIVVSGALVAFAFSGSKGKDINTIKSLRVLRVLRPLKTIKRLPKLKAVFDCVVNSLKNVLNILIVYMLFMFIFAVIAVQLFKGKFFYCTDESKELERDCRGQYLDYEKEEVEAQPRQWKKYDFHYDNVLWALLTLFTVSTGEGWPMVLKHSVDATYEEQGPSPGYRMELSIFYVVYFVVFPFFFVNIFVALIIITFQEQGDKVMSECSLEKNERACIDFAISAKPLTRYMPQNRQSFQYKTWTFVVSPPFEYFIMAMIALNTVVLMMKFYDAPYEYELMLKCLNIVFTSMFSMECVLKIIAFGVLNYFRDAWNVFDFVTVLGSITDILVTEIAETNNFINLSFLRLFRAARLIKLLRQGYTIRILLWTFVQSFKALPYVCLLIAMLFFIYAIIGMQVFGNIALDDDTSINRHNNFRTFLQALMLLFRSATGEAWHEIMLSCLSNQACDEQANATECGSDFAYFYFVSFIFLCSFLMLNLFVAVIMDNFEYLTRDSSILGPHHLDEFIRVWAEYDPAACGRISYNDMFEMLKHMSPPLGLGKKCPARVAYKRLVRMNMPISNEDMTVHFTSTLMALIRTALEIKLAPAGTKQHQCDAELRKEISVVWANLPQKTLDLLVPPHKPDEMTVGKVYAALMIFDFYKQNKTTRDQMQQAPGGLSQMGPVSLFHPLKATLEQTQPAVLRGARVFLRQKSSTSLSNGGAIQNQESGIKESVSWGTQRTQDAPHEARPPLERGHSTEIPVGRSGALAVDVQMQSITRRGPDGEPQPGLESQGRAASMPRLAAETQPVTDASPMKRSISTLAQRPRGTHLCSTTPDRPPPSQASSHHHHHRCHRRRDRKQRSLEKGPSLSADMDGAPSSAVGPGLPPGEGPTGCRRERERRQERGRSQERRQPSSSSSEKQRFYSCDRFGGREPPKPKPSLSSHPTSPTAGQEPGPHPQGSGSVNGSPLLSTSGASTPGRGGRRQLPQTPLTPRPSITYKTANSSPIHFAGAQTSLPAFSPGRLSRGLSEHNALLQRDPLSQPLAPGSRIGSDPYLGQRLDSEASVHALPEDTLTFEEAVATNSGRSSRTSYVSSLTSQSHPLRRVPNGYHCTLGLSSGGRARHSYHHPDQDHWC
T1 sequence (Q02410 whole entry): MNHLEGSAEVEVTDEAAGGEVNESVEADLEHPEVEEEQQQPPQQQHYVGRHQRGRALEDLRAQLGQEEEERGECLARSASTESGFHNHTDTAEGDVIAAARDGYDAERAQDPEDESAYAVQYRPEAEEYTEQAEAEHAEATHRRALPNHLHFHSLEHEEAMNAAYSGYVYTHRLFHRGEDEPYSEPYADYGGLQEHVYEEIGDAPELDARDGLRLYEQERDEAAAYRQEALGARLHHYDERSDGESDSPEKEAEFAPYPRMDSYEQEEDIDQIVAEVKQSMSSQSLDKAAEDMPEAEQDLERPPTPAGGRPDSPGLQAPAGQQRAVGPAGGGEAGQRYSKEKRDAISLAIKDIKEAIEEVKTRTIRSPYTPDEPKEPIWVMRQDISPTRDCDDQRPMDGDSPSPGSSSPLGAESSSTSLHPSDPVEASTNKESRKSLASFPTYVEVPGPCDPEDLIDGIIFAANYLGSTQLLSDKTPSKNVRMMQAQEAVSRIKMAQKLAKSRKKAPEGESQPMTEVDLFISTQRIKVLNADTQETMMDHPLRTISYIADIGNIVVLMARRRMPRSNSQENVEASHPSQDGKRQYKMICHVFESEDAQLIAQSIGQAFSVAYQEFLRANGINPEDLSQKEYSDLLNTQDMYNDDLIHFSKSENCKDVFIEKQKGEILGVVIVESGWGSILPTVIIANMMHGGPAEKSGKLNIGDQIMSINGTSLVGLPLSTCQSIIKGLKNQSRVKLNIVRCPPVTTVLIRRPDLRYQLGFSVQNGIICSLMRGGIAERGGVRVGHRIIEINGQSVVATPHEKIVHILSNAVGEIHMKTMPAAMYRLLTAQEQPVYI

For `O=C(CN1C(=O)S/C(=C\c2ccc(-c3cc(C(=O)O)ccc3Cl)o2)C1=O)Nc1ccc2c(c1)OCO2`, the IC50 [1] was > 50 µM (inactive), the IC50 [2] was > 56.8 µM (not active) and the IC50 [3] was > 99 µM (inactive).

With `CCN1C(NCCc2ccccn2)=N[C@@H](c2cccc(F)c2)C(C(=O)OC)=C1C` the IC50 [4] was > 100 µM (inactive) and the IC50 [5] was 13.4 µM (active).

In the case of `COC(=O)c1cc2oc(C)cc2n1CC(=O)Nc1ccc(C)c(C)c1`, the EC50 [6] is reported as > 50 µM (active).

With `Cc1cc(C)nc(N=C(N)Nc2ccc(F)c([N+](=O)[O-])c2)n1` the IC50 [7] was 10.1 µM (inactive), the IC50 (CHO-K1) was 11.6 µM (inactive) and the IC50 [8] was 17.8 µM (inactive). The IC50 [9] was 15.1 µM (inactive).

For `O=C(c1cccc(C(=O)N2CCN(c3ccc(F)cc3)CC2)c1)N1CCN(c2ccc(F)cc2)CC1`, the CC50 [10] was > 40 µM (active) and the EC50 [11] was 0.841 µM (active).

In the case of `CCc1ccc(OCCNC(=O)c2ccccc2SCc2ccccc2)cc1`, the “Absolute IC50 (CHOP)” value [12] is reported as 10 µM.

In the case of `CCn1nc(NC(C)=O)c2cc3cccc(C)c3nc21`, the IC50 [4] is reported as > 100 µM (inactive) and the IC50 [5] is reported as 7.59 µM (active).

In the case of `CN1CCc2nc(SCC(=O)Nc3ccc(Cl)cc3)c(C#N)cc2C1`, the EC50 [6] is reported as > 50 µM (active).

Source: ChEMBL document CHEMBL1201862, “PubChem BioAssay data set” (2004)
